The source made the active and inactive calls. Cut-off read from the data, not from the text of the source, for most assays here: actives have a measured EC50 and inactives only a lower limit.
Assays:
[1] = HEK-293T cell viability reduction – luminescence, B-cell screen hits, cytotoxicity control for BCR NF-kB inhibitor project, dose response (AID 489021); assay type: functional, cell-based;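 note: HEK-293T cells carrying an NF-kB luciferase reporter; cells exposed to compound for about 14 hours before viability readout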
[2] = molecular target: T1, Mannose-6-phosphate isomerase (Homo sapiens, UniProt P34949); assay: MPI inhibition at elevated mannose 6-phosphate – biochemical, fluorescence intensity, high mannose 6-phosphate, primary screen (AID 1220)
T1 sequence (P34949 whole entry): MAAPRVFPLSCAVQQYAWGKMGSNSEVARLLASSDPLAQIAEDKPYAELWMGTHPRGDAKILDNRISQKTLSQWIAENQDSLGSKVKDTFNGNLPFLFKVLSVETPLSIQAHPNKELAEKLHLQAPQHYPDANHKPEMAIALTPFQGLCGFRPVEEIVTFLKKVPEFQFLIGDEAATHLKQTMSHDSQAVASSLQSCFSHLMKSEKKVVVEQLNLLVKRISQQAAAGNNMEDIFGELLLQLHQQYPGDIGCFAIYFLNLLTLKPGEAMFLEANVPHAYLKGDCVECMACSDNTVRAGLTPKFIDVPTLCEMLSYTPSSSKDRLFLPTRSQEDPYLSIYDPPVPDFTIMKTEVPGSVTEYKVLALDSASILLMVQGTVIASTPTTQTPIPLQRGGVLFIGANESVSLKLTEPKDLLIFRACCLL

[3] = molecular target: T2, Replicative DNA helicase DnaB (Mycobacterium tuberculosis, UniProt P9WMR3); assay: DnaB intein splicing inhibitors, dose response, biochemical, cell-free fluorescence (AID 449749); assay type: functional
T2 sequence (P9WMR3 whole entry): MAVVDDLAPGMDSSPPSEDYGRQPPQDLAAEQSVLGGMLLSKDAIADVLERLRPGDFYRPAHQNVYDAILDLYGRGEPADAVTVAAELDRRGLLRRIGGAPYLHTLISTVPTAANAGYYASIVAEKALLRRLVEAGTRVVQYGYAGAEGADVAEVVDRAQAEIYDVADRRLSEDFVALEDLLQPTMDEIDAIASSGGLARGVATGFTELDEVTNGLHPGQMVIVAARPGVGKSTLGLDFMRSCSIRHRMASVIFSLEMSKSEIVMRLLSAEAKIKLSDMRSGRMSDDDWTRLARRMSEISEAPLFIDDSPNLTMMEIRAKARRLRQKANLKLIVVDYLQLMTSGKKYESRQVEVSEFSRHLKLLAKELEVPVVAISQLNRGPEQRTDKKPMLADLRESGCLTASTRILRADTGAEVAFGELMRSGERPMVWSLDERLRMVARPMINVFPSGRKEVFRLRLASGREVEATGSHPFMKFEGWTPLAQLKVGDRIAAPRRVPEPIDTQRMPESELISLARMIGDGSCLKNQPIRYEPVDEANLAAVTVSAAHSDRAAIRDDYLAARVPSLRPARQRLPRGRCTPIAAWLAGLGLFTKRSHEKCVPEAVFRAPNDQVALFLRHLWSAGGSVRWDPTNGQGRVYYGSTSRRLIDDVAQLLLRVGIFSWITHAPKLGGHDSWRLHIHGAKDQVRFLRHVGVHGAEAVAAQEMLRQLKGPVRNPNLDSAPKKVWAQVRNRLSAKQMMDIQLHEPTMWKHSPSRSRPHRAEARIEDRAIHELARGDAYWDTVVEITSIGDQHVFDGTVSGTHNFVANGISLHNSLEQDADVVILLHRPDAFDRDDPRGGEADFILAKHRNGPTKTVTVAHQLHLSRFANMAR

Protein RecA = molecular target: T3, Protein RecA (Mycobacterium tuberculosis, UniProt P9WHJ3); assay: Fluorescence Cell-Free Homogeneous Dose Retest to Identify Inhibitors of RecA-Intein Splicing Activity. [Related pubchem assays (depositor defined):AID2097, AID2223, AID489010, AID492950]; assay type: functional
T3 sequence (P9WHJ3 whole entry): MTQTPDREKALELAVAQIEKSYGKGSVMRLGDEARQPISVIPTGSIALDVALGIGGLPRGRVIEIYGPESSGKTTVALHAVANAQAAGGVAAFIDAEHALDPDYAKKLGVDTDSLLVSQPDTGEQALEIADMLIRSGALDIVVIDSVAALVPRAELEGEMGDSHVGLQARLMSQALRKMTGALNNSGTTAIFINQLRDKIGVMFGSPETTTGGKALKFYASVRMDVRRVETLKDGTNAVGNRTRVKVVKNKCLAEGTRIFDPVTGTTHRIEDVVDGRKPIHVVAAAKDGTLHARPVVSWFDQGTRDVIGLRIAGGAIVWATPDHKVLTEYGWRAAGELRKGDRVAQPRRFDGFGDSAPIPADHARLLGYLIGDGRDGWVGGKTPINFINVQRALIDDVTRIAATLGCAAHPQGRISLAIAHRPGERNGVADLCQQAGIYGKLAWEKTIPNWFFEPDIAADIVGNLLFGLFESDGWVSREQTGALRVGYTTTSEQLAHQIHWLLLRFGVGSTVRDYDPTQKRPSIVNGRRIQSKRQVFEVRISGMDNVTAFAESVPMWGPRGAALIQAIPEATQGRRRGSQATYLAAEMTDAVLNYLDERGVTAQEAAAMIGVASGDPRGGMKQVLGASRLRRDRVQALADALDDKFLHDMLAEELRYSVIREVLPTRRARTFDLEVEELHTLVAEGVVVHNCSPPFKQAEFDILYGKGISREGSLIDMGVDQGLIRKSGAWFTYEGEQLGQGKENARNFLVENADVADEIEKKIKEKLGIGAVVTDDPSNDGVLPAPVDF

[4] = molecular target: T4, Histone-lysine N-methyltransferase NSD2 (Homo sapiens, UniProt O96028); assay type: biochemical
T4 sequence (O96028 whole entry): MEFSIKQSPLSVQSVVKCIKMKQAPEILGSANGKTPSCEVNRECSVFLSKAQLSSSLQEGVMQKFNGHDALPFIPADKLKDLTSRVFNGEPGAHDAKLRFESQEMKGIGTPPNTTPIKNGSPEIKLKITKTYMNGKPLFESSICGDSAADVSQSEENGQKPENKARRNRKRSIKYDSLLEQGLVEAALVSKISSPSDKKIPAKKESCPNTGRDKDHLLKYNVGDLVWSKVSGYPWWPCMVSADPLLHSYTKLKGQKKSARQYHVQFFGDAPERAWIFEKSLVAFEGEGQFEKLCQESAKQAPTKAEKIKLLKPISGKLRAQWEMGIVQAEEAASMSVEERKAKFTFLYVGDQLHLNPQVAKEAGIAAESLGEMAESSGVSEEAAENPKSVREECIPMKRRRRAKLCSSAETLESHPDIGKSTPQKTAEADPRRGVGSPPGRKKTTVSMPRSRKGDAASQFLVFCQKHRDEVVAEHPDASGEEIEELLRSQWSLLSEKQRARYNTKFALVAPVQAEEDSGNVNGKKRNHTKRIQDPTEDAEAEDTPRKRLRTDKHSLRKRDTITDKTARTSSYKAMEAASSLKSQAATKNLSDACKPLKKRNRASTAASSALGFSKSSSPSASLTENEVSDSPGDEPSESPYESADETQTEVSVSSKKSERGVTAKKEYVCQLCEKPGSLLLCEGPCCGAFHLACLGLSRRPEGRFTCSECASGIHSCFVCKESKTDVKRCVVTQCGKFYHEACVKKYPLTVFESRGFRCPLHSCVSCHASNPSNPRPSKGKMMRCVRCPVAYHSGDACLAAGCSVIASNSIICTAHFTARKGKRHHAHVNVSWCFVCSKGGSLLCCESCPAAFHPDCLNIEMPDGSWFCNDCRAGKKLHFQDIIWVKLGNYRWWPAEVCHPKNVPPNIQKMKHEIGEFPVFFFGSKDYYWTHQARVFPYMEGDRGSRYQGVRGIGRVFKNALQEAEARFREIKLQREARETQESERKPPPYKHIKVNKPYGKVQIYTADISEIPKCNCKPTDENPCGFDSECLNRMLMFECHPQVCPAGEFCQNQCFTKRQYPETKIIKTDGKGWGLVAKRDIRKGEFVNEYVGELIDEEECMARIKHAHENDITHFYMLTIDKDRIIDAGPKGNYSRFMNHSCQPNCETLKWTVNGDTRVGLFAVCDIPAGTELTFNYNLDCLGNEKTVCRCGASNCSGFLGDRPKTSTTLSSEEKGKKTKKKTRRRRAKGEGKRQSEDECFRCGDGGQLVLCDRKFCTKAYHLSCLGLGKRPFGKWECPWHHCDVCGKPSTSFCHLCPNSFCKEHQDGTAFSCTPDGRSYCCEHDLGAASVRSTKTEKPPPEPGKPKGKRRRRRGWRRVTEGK

Estrogen receptor beta = Estrogen receptor beta (Homo sapiens, UniProt Q92731); assay: blockers of SRC-3 recruitment to ERβ – biochemical, ELISA, streptavidin-HRP readout, orthogonal assay, confirmation (AID 1060)
Chain of Estrogen receptor beta (Q92731 whole entry): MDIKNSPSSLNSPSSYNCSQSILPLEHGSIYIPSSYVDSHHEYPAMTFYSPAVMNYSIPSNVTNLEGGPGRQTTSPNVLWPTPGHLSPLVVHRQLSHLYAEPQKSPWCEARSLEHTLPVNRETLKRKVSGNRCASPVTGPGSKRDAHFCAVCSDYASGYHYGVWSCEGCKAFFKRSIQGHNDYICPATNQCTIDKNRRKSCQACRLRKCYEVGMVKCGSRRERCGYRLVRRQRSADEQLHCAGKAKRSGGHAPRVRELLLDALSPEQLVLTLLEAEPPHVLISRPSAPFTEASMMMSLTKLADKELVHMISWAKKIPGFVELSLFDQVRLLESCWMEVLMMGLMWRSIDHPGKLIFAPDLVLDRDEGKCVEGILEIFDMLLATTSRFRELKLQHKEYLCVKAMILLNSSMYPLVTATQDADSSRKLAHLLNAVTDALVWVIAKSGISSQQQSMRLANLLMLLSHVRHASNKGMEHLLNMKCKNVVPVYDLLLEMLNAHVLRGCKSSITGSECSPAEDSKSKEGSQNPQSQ

[5] = molecular target: Luciferin 4-monooxygenase (Photinus pyralis, UniProt P08659); assay: Counter Screen for Luciferase-based Assay Positives. [Related pubchem assays: 620, 618, 411 ]
Chain of Luciferin 4-monooxygenase (P08659 whole entry): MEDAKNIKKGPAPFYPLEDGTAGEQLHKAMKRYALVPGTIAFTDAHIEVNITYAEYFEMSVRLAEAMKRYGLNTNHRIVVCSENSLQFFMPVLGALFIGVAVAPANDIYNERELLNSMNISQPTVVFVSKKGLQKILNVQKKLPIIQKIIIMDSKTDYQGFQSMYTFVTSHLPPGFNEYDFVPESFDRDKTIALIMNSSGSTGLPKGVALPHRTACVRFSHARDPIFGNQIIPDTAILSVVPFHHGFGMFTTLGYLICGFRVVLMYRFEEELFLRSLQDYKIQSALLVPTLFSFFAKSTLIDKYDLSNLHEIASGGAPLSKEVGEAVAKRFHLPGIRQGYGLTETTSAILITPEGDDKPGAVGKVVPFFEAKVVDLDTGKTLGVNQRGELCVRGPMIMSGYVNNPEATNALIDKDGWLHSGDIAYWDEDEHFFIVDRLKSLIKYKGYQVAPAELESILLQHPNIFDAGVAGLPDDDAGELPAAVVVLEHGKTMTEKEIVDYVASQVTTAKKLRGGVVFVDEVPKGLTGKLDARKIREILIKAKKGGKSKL

HT-1080 = assay: HT1080 cell viability loss – fluorescence readout (AID 620); assay type: functional, cell-based; details: Homo sapiens
[6] = Trypanosoma cruzi growth suppression in host cells – NIH3T3 host cells, beta-gal luminescence, confirmation (AID 2044); assay type: functional, cell-based;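 note: intracellular parasites grown in NIH/3T3 mouse fibroblasts as host cells; luminescent beta-galactosidase reporter signal from transgenic T. cruzi replicating inside host cells; inhibitors lower the luminescence signal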
[7] = NIH3T3 cell viability loss – ATP luminescence, mouse fibroblasts, counter-screen, dose response (AID 2010); assay type: functional, cell-based;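 note: cells exposed to compound for about 90 hours before reading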
[8] = molecular target: Glyceraldehyde-3-phosphate dehydrogenase (Homo sapiens, UniProt P04406)
Chain of Glyceraldehyde-3-phosphate dehydrogenase (P04406 whole entry): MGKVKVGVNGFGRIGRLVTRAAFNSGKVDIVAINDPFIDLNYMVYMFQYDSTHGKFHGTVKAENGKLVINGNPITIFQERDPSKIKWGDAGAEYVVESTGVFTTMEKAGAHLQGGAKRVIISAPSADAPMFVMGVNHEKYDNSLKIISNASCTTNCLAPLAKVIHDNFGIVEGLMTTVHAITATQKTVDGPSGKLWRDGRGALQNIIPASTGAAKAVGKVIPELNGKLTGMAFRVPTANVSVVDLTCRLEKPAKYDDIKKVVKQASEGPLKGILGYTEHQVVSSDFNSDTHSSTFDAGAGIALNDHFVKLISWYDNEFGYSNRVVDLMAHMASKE

[9] = luciferase reporter signal suppression in cells – H4 neuroglioma cells, luminescence, dose response (AID 1990); assay type: functional, cell-based
[10] = Luminescence Cell-Based Dose Response HTS to Identify Inhibitors of 5'UTR Stem-Loop Driven Prion Protein mRNA Translation in H4 Neuroglioblastoma Cells. [Related pubchem assays: 1827 (Project Summary), 1813 (Primary HTS)]; assay type: functional
[11] = alpha-synuclein stem-loop luciferase translation blockers – H4 neuroglioma cells, luminescence, confirmation (AID 1988); assay type: functional, cell-based
[12] = molecular target: T5, Heat shock factor protein 1 (Mus musculus, UniProt P38532); assay: enhancement of HSF1-driven luciferase signal – cell-based, NIH3T3, luminescence, dose retest, confirmation (AID 435004); assay type: functional;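 note: stress induced by proteasome inhibitor MG132 added 30 min after compound; luciferase reporter driven by HSF1 response element in NIH3T3 cells; actives raise luminescence as potentiators of the MG132 stress response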
T5 sequence (P38532 whole entry): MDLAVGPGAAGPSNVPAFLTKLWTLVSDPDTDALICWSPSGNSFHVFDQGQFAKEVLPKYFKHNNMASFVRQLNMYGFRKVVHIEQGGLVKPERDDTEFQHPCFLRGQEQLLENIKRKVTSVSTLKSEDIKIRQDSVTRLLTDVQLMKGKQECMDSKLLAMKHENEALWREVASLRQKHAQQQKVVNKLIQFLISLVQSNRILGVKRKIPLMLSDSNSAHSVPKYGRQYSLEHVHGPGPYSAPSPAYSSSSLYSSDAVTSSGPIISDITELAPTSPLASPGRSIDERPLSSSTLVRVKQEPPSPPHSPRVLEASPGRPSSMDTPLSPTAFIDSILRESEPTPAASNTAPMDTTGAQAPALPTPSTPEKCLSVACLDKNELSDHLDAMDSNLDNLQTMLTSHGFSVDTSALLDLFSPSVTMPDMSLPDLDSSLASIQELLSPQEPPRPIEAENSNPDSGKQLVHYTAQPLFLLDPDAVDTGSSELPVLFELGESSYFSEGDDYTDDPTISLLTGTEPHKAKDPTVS

HEK293 = assay: EBV LMP1 TES2 canonical NF-kB signalling blockers – cell-based, HEK293, luciferase, cherry-pick, dose response (AID 588343); assay type: functional; details: Homo sapiens

## COc1ccc(-c2noc(CCCC(=O)Nc3ccc(C(N)=O)cc3)n2)cc1
[1]
  IC50: > 80 µM (inactive)

## CC1=Nc2cccc3cccc(c23)N1C
[2]
  IC50: > 50 µM (not active)
[3]
  AC50: > 380 µM (inactive)
Protein RecA
  EC50: > 380 µM (inactive)
[4]
  AC50: 1.25 µM (active)

## CC(=N)/C(C#N)=C(/O)CSc1nnnn1-c1ccccc1
Estrogen receptor beta
  IC50: > 50 µM (not active)

## Cc1cc(-c2csc(N)n2)c(C)n1CCC(C)C
[5]
  EC50: 16 µM (active)
HT-1080
  EC50: > 50 µM (not active)

## COCc1cc(CN2CCCC(C(=O)Nc3cccc(-n4cnnn4)c3)C2)ccc1OC (stereo not drawn)
[6]
  EC50: < 0.1 µM (active)
[7]
  EC50: > 60 µM (not active)
cells
  EC50: 0.061 µM (active)

## O=C1C(Cl)=C(N2CCN(Cc3ccccc3)CC2)C(=O)N1c1ccnc(Cl)c1
[8]
  IC50: > 50 µM (inconclusive)

## CSCCC(=O)N(C)CC1CCCN(CCc2cccc(C(F)(F)F)c2)C1 (stereo not drawn)
[6]
  EC50: < 0.1 µM (active)
[7]
  EC50: > 60 µM (not active)
cells
  EC50: 0.329 µM (active)

## Cc1ccc(C(=O)CSc2nnnn2C(C)C)c(C)c1
[9]
  EC50: 9.17 µM (active)
[5]
  EC50: 8.28 µM (active)
[10]
  EC50: 14.7 µM (active)
[11]
  EC50: 3.7 µM (active)
HT-1080
  EC50: > 50 µM (not active)
[12]
  EC50: > 260 µM (inactive)
HEK293
  AC50: 2.92 µM (active)

## CCc1ccc(NC(=O)CSc2nc(C)cc(O)n2)cc1
Estrogen receptor beta
  IC50: 48.8 µM (not active)
